From patent US8895054B2, “Methods for joint lubrication and cartilage wear prevention making use of glycerophospholipids” (Technion Research and Development Foundation Ltd., priority 2006, dated 2014)
Values joined by “and” are separate entries in the source; they are usually repeats but may differ in a detail not shown here. Equal entries are not always repeated.

Experiments:
[1] = cited from earlier work; for Phase transition temperature (Tm): Table 1, SO to LD, phospholipid bilayers
[2] = system: human articular cartilage; test: Wear determination test (GAG content in wear debris); conditions: added to ISF 1:1; after run-in period; 60 N (4.8 MPa)
Description: • (i) phospholipid (PL) concentration, using the modified Bartlett assay^37, 38; • (ii) size distribution, for liposomes under 1 μm by dynamic light scattering using an ALV-NIBS High Performance Particle Sizer (Langen, Germany) at a scattering angle of 173°; and for liposomes above 400 nm by light diffraction using a Beckman Coulter LS Particle Size Analyzer 13-320 (Fullerton, Calif.), equipped with polarization intensity differential scattering (PIDS) to provide a dynamic detection range from 40 nm to 2000 μm; • (iii) partial specific adiabatic compressibility, by calculation from the density of the liposome dispersion (using a DMA 5000 density meter, Anton Paar, Graz, Austria) and the velocity of an 5 MHz ultrasonic wave traveling through it (using a UCC-12 ultrasonic velocimeter, NDT Instruments, Jerusalem, Israel), as described by Garbuzenko et al.^39; and • (iv) structure, using scanning electron microscopy (SEM). […] For the a qualitative evaluation of wear, the effect of friction tests on the concentration of total PL in cartilage, and on the structure of the cartilage surface was determined. PL extraction and quantification: Total PL were extracted from cartilage specimens before and after lubrication tests, using the Bligh and Dyer extraction procedure^41, 42. […]

[3] = system: joints of osteoarthritis patients; conditions: injection into joints of osteoarthritis patients; cited from earlier work
[4] = LD phase (above Tm); cited from earlier work
[5] = Partial specific adiabatic compressibility of the lipid bilayer; format: physicochemical
Description: • (i) phospholipid (PL) concentration, using the modified Bartlett assay^37, 38; • (ii) size distribution, for liposomes under 1 μm by dynamic light scattering using an ALV-NIBS High Performance Particle Sizer (Langen, Germany) at a scattering angle of 173°; and for liposomes above 400 nm by light diffraction using a Beckman Coulter LS Particle Size Analyzer 13-320 (Fullerton, Calif.), equipped with polarization intensity differential scattering (PIDS) to provide a dynamic detection range from 40 nm to 2000 μm; • (iii) partial specific adiabatic compressibility, by calculation from the density of the liposome dispersion (using a DMA 5000 density meter, Anton Paar, Graz, Austria) and the velocity of an 5 MHz ultrasonic wave traveling through it (using a UCC-12 ultrasonic velocimeter, NDT Instruments, Jerusalem, Israel), as described by Garbuzenko et al.^39; and • (iv) structure, using scanning electron microscopy (SEM). Cartilage: Articular cartilage from healthy or osteoarthritis humans (aged 65 to 86 years) was obtained from femoral head fracture operations or total hip replacements. Tissue was classified as normal or pathological according to the visual diagnosis. For wear rate determination, only femoral heads with normal tissue were selected. Specimens were frozen at −20° C. until sample preparation in order to keep the mechanical properties close to those of live tissue. Pairs of cylindrical plugs, having 4 mm and 8 mm in diameter, each pair from the same region of the joint, were prepared. These cylindrical plugs, consisting of about 2 mm thick cartilage on top of about 8 mm long bone, were removed from the femoral head using a cork borer. The plugs were glued to holders through the bone part, using cyanoacrylate-based adhesive glue, leaving the cartilage projecting out of the holders. Thereafter, these plugs were refrozen at −20° C. until tested. Cartilage with completely intact and smooth surface was used. Friction and wear testing: Liposomes covering a wide range of sizes and concentrations, dispersed in HB, were screened as potential lubricants to reduce friction and wear between two discs of human cartilage at 24° C. and 37° C. […] For the a qualitative evaluation of wear, the effect of friction tests on the concentration of total PL in cartilage, and on the structure of the cartilage surface was determined. PL extraction and quantification: Total PL were extracted from cartilage specimens before and after lubrication tests, using the Bligh and Dyer extraction procedure^41, 42. […]

Row | Molecule | Phase transition temperature (Tm) [1] | SO-to-LD phase transition temperature, Tm [1] | also measured
1 | CCCCCCCC/C=C\CCCCCCCC(=O)OC[C@H](COP(=O)([O-])OCC[N+](C)(C)C)OC(=O)CCCCCCC/C=C\CCCCCCCC [DOPC, 1,2-dioleoyl-sn-glycero-3-phosphocholine] | −21 °C |  | 
2 | CCCCCCCCCCCCCCC(=O)OC[C@H](COP(=O)([O-])OCC[N+](C)(C)C)OC(=O)CCCCCCCCCCCCCC [1,2-dipentadecanoyl-sn-glycero-3-phosphocoline] |  | 33.0 °C | 
3 | CCCCCCCCCCCCC/C=C/[C@@H](O)[C@H](COP(=O)([O-])OCC[N+](C)(C)C)NC(=O)CCCCCCCCCCCCCCC [N-palmitoyl SM] |  | 41.4 °C and 41.0 °C | 
4 | CCCCCCCCCCCCCCCC(=O)OCC(COP(=O)(O)OCC(O)CO)OC(=O)CCCCCCCCCCCCCCC (stereo not drawn) [DPPG] |  | 41.4 °C | 
5 | CCCCCCCCCCCCCC(=O)OCC(COP(=O)(O)OCC(O)CO)OC(=O)CCCCCCCCCCCCC (stereo not drawn) [DMPG] |  | 23 °C | 
6 | hyaluronic acid [HA] |  |  | reduction of constant wear rate compared with ISF alone [2]: ~10%
7 | CCCCCCCCCCCCCCCC(=O)OC[C@H](COP(=O)([O-])OCC[N+](C)(C)C)OC(=O)CCCCCCCCCCCCCCC [DPPC, 1,2-dipalmitoyl-sn-glycero-3-phosphocholine] | 41.4 °C | 41.4 °C | duration of mobility improvement [3]: up to 14 weeks; side effects [3]: without major side effects; water molecules per headgroup [4]: ~9.7 water molecules per headgroup; partial specific adiabatic compressibility, K ([5]; 24° C.): 28.0 ×10^−6 mL/(g-atm); partial specific adiabatic compressibility, K ([5]; 37° C.): 31.2 ×10^−6 mL/(g-atm)
8 | CCCCCCCCCCCCCC(=O)OC[C@H](COP(=O)([O-])OCC[N+](C)(C)C)OC(=O)CCCCCCCCCCCCC [DMPC, 1,2-dimyristoyl-sn-glycero-3-phosphocholine] | 23.2 °C | 23.2 °C and 23 °C | water molecules per headgroup [4]: ~9.7 water molecules per headgroup; partial specific adiabatic compressibility, K ([5]; 24° C.): 46.4 ×10^−6 mL/(g-atm); partial specific adiabatic compressibility, K ([5]; 37° C.): 50.7 ×10^−6 mL/(g-atm)
